Converted amounts (≈) assume the structure as drawn. “And” between values parts separate entries of the source, which are not always exact repeats. Identical values can stand only once. Like-named read-outs stand apart in the source and are kept apart here.
Columns and labels:
[1] = test system: cyclin D1 and p21 mRNA in MDA-MB-453 cells; test: RT-PCR of mRNA; assay type: cell-based, human
Procedure: (§1) MDA-MB-453 cells were treated with DMSO or actein for 3, 10, or 24 h. RNA was isolated and analyzed by RT-PCR, using primers for cyclin D1 and actin (control). The staining intensities of the visualized blots were quantified using NIH image software. The relative band intensities were determined by comparing treated samples with untreated controls. These values were then normalized (fold), using actin as an internal control.
as §1, with “using β-actin” for “using actin”

MDA-MB-453 cells [2] = test: MTT assay, 96 hours; assay type: cell-based, human; settings: for IC50: Homo sapiens, MTT, 96 h
Procedure: (§2) For the Coulter counter assay, cells were seeded at 2×10^4 cells per well in 24 well plates (0.875 cm diameter) as described previously. […] Control and treated cells were compared using the student's t-test (p<0.05). For cell cycle analysis the cells were plated (3×10^5) onto 6 cm dishes and allowed to attach for 24 hours. […] After 24 hours the cells were analyzed by DNA flow cytometry, as described previously.

MCF7 cells [3] = test: Cell-cycle analysis by DNA flow cytometry; assay type: cell-based, human
Procedure: Synchrony: To synchronize the cells, 3×10^5 cells were plated onto 10 cm dishes and grown for 2 days in DMEM supplemented with 10% fetal bovine serum.
After incubation for 1-3 days, the supernatant was collected, and the cells were trypsinized, collected, and washed with phosphate buffered saline (PBS) containing 5% FBS. Cell pellets were re-suspended in 1 ml of PBS plus 5% FBS. Thereafter, 5 ml of 70% ethanol were added drop-wise, while vortexing the tube, and the mixture was stored at 4° C. Cells were centrifuged, washed with PBS plus 5% FBS, and re-suspended in 400 μl of propidium iodide (0.1 mg/ml) (Sigma Chemical Co.). 400 μl (2 mg/ml) of RNase (Sigma Chemical Co.) were added, and the cells were incubated in the dark at room temperature for 30 min.

[4] = test system: cyclin D1 mRNA in MCF7 cells; test: RT-PCR of mRNA; assay type: cell-based, human
Procedure: as §1, with “FIG. 13 illustrates the effects of actein on cyclin D1 mRNA in MCF7 cells (RT-PCR). MCF7 cells” for “MDA-MB-453 cells”, “using β-actin” for “using actin”

MCF7 cells [5] = test: MTT assay, 96 hours; assay type: cell-based, human
cyclin D1 promoter = test: Cyclin D1 reporter assay (luciferase); assay type: cell-based, human; settings: MDA-MB-453, 24 h
Procedure: The cyclin D1 promoter luciferase reporter plasmid, 1745CD1LUC, was prepared by Dr. R. Pestell (Albert Einstein Cancer Center, New York, N.Y.). The method used for transient transfection reporter assays was previously described (Soh et al., Novel roles of specific isoforms of protein kinase C in activation of the c-fos serum response element. Molecular and Cellular Biology, 19:1313-24, 1999). Using lipofectin, triplicate samples of MDA-MB-453 breast cancer cells (1×10^5 cells in 35-mm plates) were co-transfected using DNA of the indicated reporter plasmid (1 μg) and the β-gal plasmid as an internal control (10 μg of the pCMV-b-gal plasmid) in opti-MEM 1 medium (Life Technologies, Inc.). After 24 h, the medium was replaced with serum-free medium containing the indicated concentrations of actein. After 24 h, cells were harvested, and luciferase activity was determined with the luciferase assay system (Promega Corp. Madison, Wis.); β-gal activities were determined with the β-gal enzyme assay system (Promega). Luciferase activities were normalized to β-gal activities, to correct for differences in transfection efficiency.

ERK2 in MDA-MB-453 cells = test: RNAi-mediated gene knockdown of ERK2 (MAPK1), growth inhibition; assay type: cell-based, human; settings: for inhibition at 20 µg/mL: Homo sapiens, MDA-MB-453, 48 h, actein 20 μg/ml, 48 h, read-out: percent growth inhibition; for cell proliferation: digitoxin 0.4 μg/ml, 24 hours
Procedure: RNAi-mediated gene knockdown. To test the functional relevance of ERK2 (p42/44MAPK pathway), the growth inhibitory effects of actein on MDA-MB-453 cells using the model system RNAi-mediated gene knockdown was examined. Cells were pretreated with siRNA to ERK2 (Hs/Mm MAPK1 siRNA) (Qiagen, Valencia, Calif.) for 24 h, then treated with actein at 20 μg/ml for 48 h, and the percent surviving cells was assayed. Western blot analysis was performed to confirm the ERK2 knockdown.

MDA-MB-453 cells [6] = test: Cell proliferation, cell count (Coulter Counter); settings: Homo sapiens, MDA-MB-453, 96 h
Procedure: For the cell count assay, breast cancer cells were seeded, in triplicate, at 2×10^4 cells per well, in 24- or 96-well plates.
as §2

[7] = Animal wellness, histopathological examination, tolerated dose; assay type: in vivo, Sprague-Dawley rats; settings: actein 35.7 mg/kg; 24 hours
Procedure: A sample of each mammary tumor was collected, frozen in liquid nitrogen and kept at −70° C.
Analysis by microscopy: Histopathological examination of H&E and H&E/Oil Red O stained sections of control and treated tissues obtained 6 or 24 hours after treatment were performed. Tissues were embedded in OCT (optimal cutting temperature compound to enable cryosectioning of the sample).
Livers were embedded in OCT (optimal cutting temperature compound to enable cryosectioning of the sample) and stained with haematoxylin and eosin (H and E). All samples were visualized with a Zeiss Axioplan 2 microscope (Carl Zeiss Inc., Thornwood, N.Y.) and images were obtained with a Nikon Coolpix 5000 (Nikon Instruments, Melville, N.Y.) camera.

[8] = heart failure; cited from earlier work

CC(=O)O[C@@H]1C[C@@]23C[C@@]24CC[C@H](O[C@@H]2OC[C@@H](O)[C@H](O)[C@H]2O)C(C)(C)[C@@H]4CC[C@H]3[C@]2(C)C[C@@H]3O[C@]4(C[C@@H](C)[C@@H]3[C@@]12C)O[C@H](O)[C@@]1(C)O[C@@H]41 [actein]
cyclin D1 mRNA (RT-PCR) ([1]; 3 h, 20 μg/ml): 0.88 fold | cyclin D1 mRNA (RT-PCR) ([1]; 3 h, 40 μg/ml): 1 fold | cyclin D1 mRNA (RT-PCR) ([1]; 10 h, 20 μg/ml): 1.18 fold | cyclin D1 mRNA (RT-PCR) ([1]; 10 h, 40 μg/ml): 1.02 fold | cyclin D1 mRNA (RT-PCR) ([1]; 24 h, 20 μg/ml): 0.98 fold | cyclin D1 mRNA (RT-PCR) ([1]; 24 h, 40 μg/ml): 0.56 fold | amplification: IC50 ATPase inhibition / IC50 growth inhibition (MDA-MB-453 cells [2]): about 2 fold | IC50 (MDA-MB-453 cells [2]; read-out: IC50): ~5 µg/mL and ~7.4 µM | cells in G1 (MCF7 cells [3]; 10 μg/ml, 24 h): 75% | cells in G1 (MCF7 cells [3]; 10 μg/ml, 48 h): 77% | cells in G1 (MCF7 cells [3]; 20 μg/ml, 24 h): 77% | apoptosis (sub G1 peak) (MCF7 cells [3]; 20 μg/ml, 48 h): approximately 1.4% | cells in G1 (MCF7 cells [3]; 20 μg/ml, 48 h): 87% | apoptosis (sub G1 peak) (MCF7 cells [3]; 20 μg/ml, 72 h): 3.6% | cells in G1 (MCF7 cells [3]; 30 μg/ml, 48 h): 82% | cells in G2/M (MCF7 cells [3]; 30 μg/ml, 48 h): 12% | cells in G1 (MCF7 cells [3]; 40 μg/ml, 24 h): 74% | cells in G1 (MCF7 cells [3]; 40 μg/ml, 48 h): 79% | cells in G1 (MCF7 cells [3]; 60 μg/ml, 48 h): 77% | cells in G2/M (MCF7 cells [3]; 60 μg/ml, 48 h): 18% | cyclin D1 mRNA (RT-PCR) ([4]; 3 h, 20 μg/ml): 0.91 fold | cyclin D1 mRNA (RT-PCR) ([4]; 3 h, 40 μg/ml): 0.94 fold | cyclin D1 mRNA (RT-PCR) ([4]; 10 h, 20 μg/ml): 1.1 fold | cyclin D1 mRNA (RT-PCR) ([4]; 10 h, 40 μg/ml): 0.93 fold | cyclin D1 mRNA (RT-PCR) ([4]; 24 h, 20 μg/ml): 0.84 fold | cyclin D1 mRNA (RT-PCR) ([4]; 24 h, 40 μg/ml): 0.66 fold | IC50 (MCF7 cells [5]; Homo sapiens, MCF7, unit inferred, read-out: IC50): 20700 nM | cyclin D1 promoter activity (cyclin D1 promoter; 20 μg/ml): 0.87 fold | cyclin D1 promoter activity (cyclin D1 promoter; 40 μg/ml): 0.093 fold | inhibition at 20 µg/mL (ERK2 in MDA-MB-453 cells; ERK2 siRNA): 79.6% | inhibition at 20 µg/mL (ERK2 in MDA-MB-453 cells; control siRNA): 100% | IC50 (MDA-MB-453 cells [6]): ~8 µg/mL (≈ 11.8 µM) | liver histology (H&E) [7]: hepatotoxicity

C[C@H]1O[C@@H](O[C@H]2[C@@H](O)C[C@H](O[C@H]3[C@@H](O)C[C@H](O[C@H]4CC[C@@]5(C)[C@H](CC[C@@H]6[C@@H]5CC[C@]5(C)[C@@H](C7=CC(=O)OC7)CC[C@]65O)C4)O[C@@H]3C)O[C@@H]2C)C[C@H](O)[C@@H]1O [digitoxin]
IC50 (MDA-MB-453 cells [2]; MDA-MB-453, 96 h): ~0.025 µg/mL and ~33 nM | IC50 (MCF7 cells [5]; Homo sapiens, MCF7, MCF7): 0.2 µg/mL | IC50 (MCF7 cells [5]; Homo sapiens, MCF7, MCF7, unit inferred): 261 nM | IC50 (MCF7 cells [5]; MCF7, unit inferred): 260 nM | cell proliferation (ERK2 in MDA-MB-453 cells; control siRNA): 96.0% | cell proliferation (ERK2 in MDA-MB-453 cells; siRNA to MAPK1): 76.9% | therapeutic plasma concentration [8]: greater than 10 ng/ml and > 13 nM | IC50 (MDA-MB-453 cells [6]): 0.04 µg/mL and 50 nM
